How the values were obtained:
[1] = molecular target: T1, Dihydrofolate reductase (Mycobacterium tuberculosis) (UniProt P9WNX1)
T1 sequence (whole entry): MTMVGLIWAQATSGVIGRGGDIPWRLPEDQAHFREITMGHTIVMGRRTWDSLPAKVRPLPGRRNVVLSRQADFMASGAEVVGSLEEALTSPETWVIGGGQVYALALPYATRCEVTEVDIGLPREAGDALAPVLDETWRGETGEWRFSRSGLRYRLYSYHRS
Description: Inhibition of Mycobacterium tuberculosis DHFR expressed in Saccharomyces cerevisiae TB5 assessed as yeast growth inhibition after 3 days by radial spoke assay

[2] = molecular target: T2, Dihydrofolate reductase (Homo sapiens) (UniProt P00374)
T2 sequence (whole entry): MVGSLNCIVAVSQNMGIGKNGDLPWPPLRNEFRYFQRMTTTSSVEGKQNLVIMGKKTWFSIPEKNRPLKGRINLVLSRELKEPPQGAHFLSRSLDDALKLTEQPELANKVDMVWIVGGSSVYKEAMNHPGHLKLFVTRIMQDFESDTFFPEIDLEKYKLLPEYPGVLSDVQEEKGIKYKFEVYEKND
Description: Inhibition of human DHFR expressed in Saccharomyces cerevisiae TB5 assessed as yeast growth inhibition after 3 days by radial spoke assay

[3] = molecular target: T3, Dihydrofolate reductase (Saccharomyces cerevisiae S288c) (UniProt P07807)
T3 sequence (whole entry): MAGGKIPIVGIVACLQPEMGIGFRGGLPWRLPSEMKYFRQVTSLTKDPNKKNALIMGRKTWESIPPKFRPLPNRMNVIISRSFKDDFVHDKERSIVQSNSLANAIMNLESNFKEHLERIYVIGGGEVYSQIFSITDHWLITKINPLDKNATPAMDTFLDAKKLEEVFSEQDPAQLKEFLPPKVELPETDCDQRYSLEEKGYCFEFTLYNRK
Description: Inhibition of yeast DHFR expressed in Saccharomyces cerevisiae TB5 assessed as yeast growth inhibition by after 3 days by radial spoke assay

Row | SMILES | IZ [1] | IZ [2] | IZ [3]
1 | Nc1ncc(-c2ccccc2)c(CCc2ccccc2)n1 | 5 mm | 5 mm | 5 mm
2 | CCc1nc(N)nc(N)c1-c1cccc(Cl)c1 | 5 mm | 6 mm | 5 mm
3 | Nc1nc(N)c(-c2ccccc2)c(CC[C@@H](O)[C@@H](O)CO)n1 | 11 mm | 6 mm | 6 mm
4 | Nc1nc(N)c(-c2ccc(Cl)c(Cl)c2)c(CCCCCO)n1 | 9 mm | 9 mm | 9 mm
5 | Nc1nc(N)c(-c2ccc(Cl)c(Cl)c2)c(CC[C@@H](O)[C@@H](O)CO)n1 | 8 mm | 8 mm | 8 mm
6 | Nc1nc(N)c(-c2ccccc2)c(CC[C@H](O)[C@@H](O)CO)n1 | 9 mm | 8 mm | 8 mm
7 | Nc1nc(N)c(-c2ccc(Cl)c(Cl)c2)c([C@H](O)[C@H](O)CO)n1 | 8 mm | 8 mm | 7 mm
8 | Nc1nc(N)c(-c2ccccc2)c(CCCCCO)n1 | 7 mm | 7 mm | 9 mm
9 | Nc1nc(N)c(-c2ccc(Cl)cc2)c([C@H](O)[C@H](O)CO)n1 | 5 mm | 5 mm | 5 mm
10 | Nc1nc(N)c(-c2ccc(Br)cc2)c(CC[C@@H](O)[C@@H](O)CO)n1 | 7 mm | 6 mm | 8 mm
11 | Nc1nc(N)c(-c2ccc(Br)cc2)c(CC[C@H](O)[C@@H](O)CO)n1 | 8 mm | 5 mm | 6 mm
12 | Nc1nc(N)c(-c2ccccc2)c([C@H](O)[C@H](O)CO)n1 | 5 mm | 5 mm | 5 mm
13 | Nc1nc(N)c(-c2ccc(Br)cc2)c(CCCCCO)n1 | 8 mm | 8 mm | 9 mm
14 | Nc1nc(N)c(-c2ccc(Cl)cc2)c(CCCCCO)n1 | 8 mm | 8 mm | 8 mm
15 | Nc1nc(N)c(-c2ccc(Cl)cc2)c(CC[C@@H](O)[C@@H](O)CO)n1 | 9 mm | 7 mm | 7 mm
16 | Nc1nc(N)c(-c2ccc(Br)cc2)c([C@H](O)[C@H](O)CO)n1 | 5 mm | 5 mm | 5 mm
17 | Nc1nc(N)c(-c2ccc(Cl)cc2)c(CC[C@H](O)[C@@H](O)CO)n1 | 7 mm | 7 mm | 6 mm
